Data reported in patent US6642392B1 (priority 1997, dated 2003).

Key:
Type in all cases: in vivo
Phytophthora infestans = details: tomato seedlings sprayed to run-off, inoculated the following day; rating relative to controls; unmarked compounds (standard test rate)
Pyricularia oryzae = details: rice seedlings sprayed to run-off, inoculated the following day; rating relative to controls; unmarked compounds (standard test rate)
[1] = test system: Eiysiphe graminis f. sp. tritici; assay: Test A: wheat powdery mildew, preventive spray on wheat seedlings; details: wheat seedlings sprayed to run-off, inoculated the following day; rating relative to controls; unmarked compounds (standard test rate)
Outline: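 Compounds (3% acetone, 250 ppm Trem 014) sprayed to run-off on wheat seedlings, inoculated next day with spore dust. Incubated 7 days at 20° C before disease rating, 0–100% control relative to untreated controls.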

Puccinia recondita = assay: Test B: wheat leaf rust, preventive spray on wheat seedlings; details: wheat seedlings sprayed to run-off, inoculated the following day; rating relative to controls; unmarked compounds (standard test rate)
Outline: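 Wheat seedlings were sprayed to run-off with compound (3% acetone, 250 ppm Trem 014), then inoculated with P. recondita spores the next day. They were held 24 h saturated at 20 °C, then 6 days at 20 °C. Ratings are 0–100% disease control versus controls.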

Botrytis cinerea = assay: Test E: gray mold, preventive spray on cucumber seedlings; details: cucumber seedlings sprayed to run-off, inoculated the following day; rating relative to controls; unmarked compounds (standard test rate)
Outline: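 Compounds in 3% acetone were suspended with 250 ppm Trem 014 surfactant and sprayed to run-off on cucumber seedlings. B. cinerea spores were inoculated next day, then 48 h saturated humidity at 20° C and 5 days at 20° C. Disease control rated 0–100% versus controls.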

SMILES | Test D disease control rating (100 = 100% disease control, 0 = no disease control) (Phytophthora infestans) [%] | Test C disease control rating (100 = 100% disease control, 0 = no disease control) (Pyricularia oryzae) [%] | Test A disease control rating (100 = 100% disease control, 0 = no disease control) [1] [%] | Test B disease control rating (100 = 100% disease control, 0 = no disease control) (Puccinia recondita) [%] | Test E disease control rating (100 = 100% disease control, 0 = no disease control) (Botrytis cinerea) [%]
CC(COc1cc(F)ccc1Cl)NC(=O)C(C#N)C(C)(C)C=CF (mixture of isomers) [compound 222] | 41 | 100 | 62 | 28 | 0
C=C(F)C(C)(C)C(C#N)C(=O)NC(C)COc1cc(F)ccc1Cl (mixture of isomers) [compound 223] | 41 | 100 | 62 | 28 | 0
CC(C=Cc1ccccc1)NC(=O)C(C#N)C(C)(C)C (mixture of isomers) [compound 228] | 7 | 52 | 95 | 0 | 47
CCC1(C(=O)NC(C)CCc2ccccc2)C(C)C1(Cl)Cl (mixture of isomers) [compound 244] | 74 | 99 | 86 | 0 | 0
C=CCc1cccc(C#N)c1OCC(C)NC(=O)C1(CC)C(C)C1(Cl)Cl (mixture of isomers) [compound 254] | 0 | 53 | 0 | 0 | 0
CCCc1cccc(C#N)c1OCC(C)NC(=O)C1(CC)C(C)C1(Cl)Cl (mixture of isomers) [compound 255] | 0 | 74 | 28 | 0 | 0
CCC1(C(=O)NC(C)COc2cc(OC(F)F)ccc2C#N)C(C)C1(Cl)Cl (mixture of isomers) [compound 256] | 0 | 0 | 56 | 0 | 0
CCC1(C(=O)NC(C)COc2cc(F)c(F)cc2C#N)C(C)C1(Cl)Cl (mixture of isomers) [compound 257] | 0 | 0 | 0 | 0 | 0
CCC1(C(=O)NC(C)COc2c(F)ccc(F)c2C#N)C(C)C1(Cl)Cl (mixture of isomers) [compound 258] | 0 | 94 | 74 | 27 | 0
CCC1(C(=O)NC(C)COc2c(C)cccc2C#N)C(C)C1(Cl)Cl (mixture of isomers) [compound 259] | 0 | 91 | 84 | 0 | 48
CCC1(C(=O)NC(C)COc2c(Cl)cccc2C#N)C(C)C1(Cl)Cl (mixture of isomers) [compound 260] | 24 | 74 | 0 | 0 | 83
CCC1(C(=O)NC(C)C=Cc2ccc(F)cc2)C(C)C1(Cl)Cl (mixture of isomers) [compound 261] | 54 | 100 | 0 | 0 | 0
CCC1(C(=O)NC(C)C=Cc2ccccc2)C(C)C1(Cl)Cl (mixture of isomers) [compound 263] | 33 | 86 | 86 | 0 | 0
C=CCc1cccc(C#N)c1OCC(C)NC(=O)C(C#N)C(C)C(C)(C)C (mixture of isomers) [compound 275] | 0 | 53 | 0 | 0 | 99
CCCc1cccc(C#N)c1OCC(C)NC(=O)C(C#N)C(C)C(C)(C)C (mixture of isomers) [compound 276] | 0 | 0 | 0 | 0 | 94
CC(COc1cc(OC(F)F)ccc1C#N)NC(=O)C(C#N)C(C)C(C)(C)C (mixture of isomers) [compound 277] | 0 | 0 | 0 | 0 | 0
CC(COc1cc(F)c(F)cc1C#N)NC(=O)C(C#N)C(C)C(C)(C)C (mixture of isomers) [compound 278] | 0 | 32 | 56 | 67 | 94
CC(COc1c(F)ccc(F)c1C#N)NC(=O)C(C#N)C(C)C(C)(C)C (mixture of isomers) [compound 279] | 0 | 0 | 56 | 0 | 0
Cc1cccc(C#N)c1OCC(C)NC(=O)C(C#N)C(C)C(C)(C)C (mixture of isomers) [compound 280] | 0 | 74 | 56 | 0 | 0
CC(COc1c(Cl)cccc1C#N)NC(=O)C(C#N)C(C)C(C)(C)C (mixture of isomers) [compound 281] | 0 | 53 | 56 | 0 | 0
C=CC(C)(C)C(C#N)C(=O)NC(C)COc1cc(C)ccc1F (mixture of isomers) [compound 282] | 24 | 100 | 0 | 0 | 0
C=CCC(C#N)C(=O)NC(C)C(Oc1cc(F)ccc1F)c1ccccc1 (mixture of isomers) [compound 283] | 0 | 99 | 0 | 0 | 0
